In this experiment the test system is Streptozocin (STZ) induced diabetic rats. The experiment is described as follows: Study 1: HCQ and its combination with Losartan in renal damage, comparison with diabetic control. Type of experiment: in vivo, Wistar rats. The settings on record: after 8 weeks oral once daily, Losartan 5.5 mg/kg, Hydroxychloroquine 22.5 mg/kg; for GSH (% Naive) / GSH Mean ± SEM / TBARS (% Naive) / TBARS Mean ± SEM: kidney homogenate. The protocol: The Efficacy of the drugs was tested in two different models, one involving comparison with diabetic control (i.e. Diabetic Rats not treated with any medication) and the other involving comparison with the anti-diabetic control group (i.e. Diabetic rats administered Glimepiride) in two separate studies. 25 male Wistar rats weighing 150-250 g were divided randomly into 5 groups consisting of 5 animals each. Diabetes was induced in rats by single administration of streptozotocin (55 mg/kg/i.p) dissolved in 0.1 M-citrate buffer, pH 4.5. Group 1 (normal control) consisted of normal rats that neither received Streptozotocin (STZ) nor any test drug; Group 2 served as streptozotocin induced diabetic control. Group 3 was diabetic rats treated with Losartan (LT) (5.5 mg/kg); Group 4 was diabetic rats treated with Hydroxychloroquine (HCQ) (22.5 mg/kg), Group 5 was diabetic rats treated with combination of HCQ (22.5 mg/kg) and LT (5.5 mg/kg). The study drugs were dissolved/suspended in distilled water and administered orally once a day for eight weeks. Blood glucose levels and renal oxidative stress parameters including TBARS, GSH and total Protein in Kidney Homogenate were assessed after the completion of eighth week of the study.

Molecules are shown by their SMILES.

For the molecule `CCN(CCO)CCCC(C)Nc1ccnc2cc(Cl)ccc12` (stereo not shown) [Hydroxychloroquine, 2-[{4-[(7-chloroquinolin-4-yl)amino]pentyl}(ethyl)amino]ethanol], the “Blood glucose level (% Control)” value is recorded as “(62.64)) % Control”, the “Blood glucose level Mean ± SEM” value was 369.9 ± 42.3 mg/dL, the “Total Protein in Kidney Homogenate (% Naive)” value is given as “(190.71) % Naive” and the “Total Protein in Kidney Homogenate Mean ± SEM” value was 1098.00 ± 23.12 µg/mL. Further, the “GSH (% Naive)” value is given as “(41.92) % Naive”, the “GSH Mean ± SEM” value turned out to be 0.827 ± 0.08 nM/mg, the “TBARS (% Naive)” value is recorded as “(178.29) % Naive” and the “TBARS Mean ± SEM” value is 0.772 ± 0.06 nM/mg.
Turning to `CCCCc1nc(Cl)c(CO)n1Cc1ccc(-c2ccccc2-c2nn[nH]n2)cc1` [Losartan], the “Blood glucose level (% Control)” value is given as “(98.57) % Control”, the “Blood glucose level Mean ± SEM” value is 582.1 ± 00^ mg/dl, the “Total Protein in Kidney Homogenate (% Naive)” value is on record as “(204.95) % Naive” and the “Total Protein in Kidney Homogenate Mean ± SEM” value is 1180.00 µg/mL. In addition, the “GSH (% Naive)” value is reported as “(41.92) % Naive”, the “GSH Mean ± SEM” value was determined as 0.827 nM/mg, the “TBARS (% Naive)” value is “(186.61) % Naive” and the “TBARS Mean ± SEM” value amounted to 0.808 nM/mg.
